Source: US10899738B2 (THE REGENTS OF THE UNIVERSITY OF MICHIGAN, priority 2016, dated 2021)

target: menin protein (Homo sapiens (Human), UniProt O00255); assay: biochemical; type: binding; settings: FP competitive binding; menin protein 4 nM, FAM-MM2 probe 2 nM
In short: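 Test compounds displaced FAM-MM2 (2 nM) from 4 nM menin after 30 min equilibration at room temperature in PBS buffer containing bovine γ-globulin, 4% DMSO and Triton X-100. Binding was followed by fluorescence polarization. Competition curves were fitted by nonlinear regression to give IC50 and Ki.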

Chain of menin protein (O00255 whole entry): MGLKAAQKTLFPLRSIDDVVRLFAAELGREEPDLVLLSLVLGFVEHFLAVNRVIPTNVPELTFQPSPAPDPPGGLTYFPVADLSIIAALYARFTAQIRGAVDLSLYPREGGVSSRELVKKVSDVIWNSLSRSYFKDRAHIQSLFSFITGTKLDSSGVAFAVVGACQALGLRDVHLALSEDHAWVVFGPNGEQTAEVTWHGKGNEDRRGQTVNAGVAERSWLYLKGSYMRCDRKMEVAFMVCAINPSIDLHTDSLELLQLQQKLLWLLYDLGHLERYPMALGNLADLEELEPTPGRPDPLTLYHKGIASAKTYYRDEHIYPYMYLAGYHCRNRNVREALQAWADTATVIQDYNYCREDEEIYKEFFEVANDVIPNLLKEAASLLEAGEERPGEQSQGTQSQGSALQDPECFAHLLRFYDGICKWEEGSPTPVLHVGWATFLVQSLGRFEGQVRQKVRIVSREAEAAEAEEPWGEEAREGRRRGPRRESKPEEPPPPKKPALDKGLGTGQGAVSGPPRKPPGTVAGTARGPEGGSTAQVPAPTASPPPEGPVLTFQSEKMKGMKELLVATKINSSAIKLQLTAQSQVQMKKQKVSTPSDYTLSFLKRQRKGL

Menin Binding Affinity IC50 (μM)	SMILES
No inhibition	N#Cc1ccc(OCCCNc2ncc(C(O)(c3ccccc3)C3CCCC3)cn2)cc1 (stereo not shown) [compound 124, 4-(3-((5-(cyclopentyl(hydroxy)(phenyl)methyl)pyrimidin-2-yl)amino)propoxy)benzonitrile]
No inhibition	CCN1Cc2ccccc2C(C2CCCC2)(C2CCN(Cc3ccccc3Oc3ccc(C#N)cc3)CC2)C1 (stereo not shown) [compound 163, 4-(2-((4-(4-cyclopentyl-2-ethyl-1,2,3,4-tetrahydroisoquinolin-4-yl)piperidin-1-yl)methyl)phenoxy)benzonitrile]

same assay, conditions: FP competitive binding; menin protein 4 nM, FAM-MM2 probe 2 nM; read-out: Menin Binding Affinity IC50

SMILES	IC50 [nM]
CC(C)C(=O)N1CCCCC1C1(C2CCN(CCCOc3ccc(C#N)cc3)CC2)CN(C)Cc2ccccc21 (stereo not shown) [compound 300, 4-(3-(4-(4-(1-isobutyrylpiperidin-2-yl)-2-methyl-1,2,3,4-tetrahydroisoquinolin-4-yl)piperidin-1-yl)propoxy)benzonitrile]	56500
CNC(=O)O[C@@H]1CCC[C@H]1C(C#N)(c1ccccc1)C1CCN(CC2(F)CN(c3ccc(S(=O)(=O)c4cnn(C)c4)cc3)C2)CC1 (mixture of isomers) [compound 370, rac-(1R,2S)-2-(cyano(1-((3-fluoro-1-(4-((1-methyl-1H-pyrazol-4-yl)sulfonyl)phenyl)azetidin-3-yl)methyl)piperidin-4-yl)(phenyl)methyl)cyclopentyl methylcarbamate]	3600
CCS(=O)(=O)c1ccc(N2CC(CN3CCC(C4(CC(C)(C)C)NCCc5ccccc54)CC3)C2)cc1 (stereo not shown) [compound 248, 1-(1-((1-(4-(ethylsulfonyl)phenyl)azetidin-3-yl)methyl)piperidin-4-yl)-1-neopentyl-1,2,3,4-tetrahydroisoquinoline]	800
N#Cc1ccc(N2CC(CN3CCC(C4(C5CCCC5)NCCc5ccccc54)CC3)C2)cn1 (stereo not shown) [compound 109, 5-(3-((4-(1-cyclopentyl-1,2,3,4-tetrahydroisoquinolin-1-yl)piperidin-1-yl)methyl)azetidin-1-yl)picolinonitrile]	825
N#CC(c1ccccc1)(C1CCN(CC2CN(c3ccc(S(=O)(=O)c4ccncc4)cc3)C2)CC1)[C@@H]1CCC[C@H]1OC(=O)C1CC1 (mixture of isomers) [compound 198, rac-(1R,2S)-2-(cyano(phenyl)(1-((1-(4-(pyridin-4-ylsulfonyl)phenyl)azetidin-3-yl)methyl)piperidin-4-yl)methyl)cyclopentyl cyclopropanecarboxylate]	853
N#Cc1cc2cc(CN3CCC(CC4(C5CCCC5)NCCc5ccccc54)CC3)ccc2[nH]1 (stereo not shown) [compound 112, 5-((4-((1-cyclopentyl-1,2,3,4-tetrahydroisoquinolin-1-yl)methyl)piperidin-1-yl)methyl)-1H-indole-2-carbonitrile]	41600
N#Cc1ccc(N2CC(CN3CCC(C4(C5CCCC5)CN(C5COC5)Cc5ccccc54)CC3)C2)cc1 (stereo not shown) [compound 44, 4-(3-((4-(4-cyclopentyl-2-(oxetan-3-yl)-1,2,3,4-tetrahydroisoquinolin-4-yl)piperidin-1-yl)methyl)azetidin-1-yl)benzonitrile]	910
CNC(=O)O[C@@H]1CCC[C@H]1C(C#N)(c1ccccc1)C1CCN(CCCOc2ccc(C#N)cc2)CC1 (mixture of isomers) [compound 233, rac-(1R,2S)-2-(cyano(1-(3-(4-cyanophenoxy)propyl)piperidin-4-yl)(phenyl)methyl)cyclopentyl methylcarbamate]	178
N#Cc1ccc(OCCCN2CCC(CC3(C4CCCC4)NCCc4ccccc43)CC2)cc1 (stereo not shown) [compound 104, 4-(3-(4-((1-cyclopentyl-1,2,3,4-tetrahydroisoquinolin-1-yl)methyl)piperidin-1-yl)propoxy)benzonitrile]	32700
CC(C)(C)S(=O)(=O)c1ccc(N2CC(CN3CCC(C4(C5CCCC5)NCCc5ccccc54)CC3)C2)cc1 (stereo not shown) [compound 87, 1-(1-((1-(4-(tert-butylsulfonyl)phenyl)azetidin-3-yl)methyl)piperidin-4-yl)-1-cyclopentyl-1,2,3,4-tetrahydroisoquinoline]	122
COCC(C1CC1)C(C#N)(c1ccccc1)C1CCN(CCCOc2ccc(C#N)cc2)CC1 (stereo not shown) [compound 329]	19000
